In patent US20080300180A1, “Growth Hormone Secretagogue Receptor 1A Ligands” (Gastrotech Pharma A/S, priority 2004, published 2008):
“Also recorded” adds a separate entry of the source. Square brackets hold non-standard residues; d marks the D form. Ends that are not written are not given here. * marks the point of attachment. Octanoyl = CCCCCCCC(=O)*; GABA = NCCCC(=O)O

Test: Preclinical study evaluating the long-term efficacy of subcutaneous ghrelin, GTP-5 and GTP-6 in rats (weight gain, food intake, fat pads)
Assay type: in vivo, rat
Conditions: for Total weight increase in the animals, Mean ± S.D.: Sprague-Dawley rats, n=8, s.c. twice daily; for Body weight gain compared with saline group (in words) / Cumulative food intake compared with control group (in words) / Subcutaneous fat depots (fat pad weight, in words) / Epididymal fat depots (fat pad weight, in words): rats, s.c. twice daily
Experimental: 48 (Sprauge-Dawley (SD) IGS BR) rats were used in the study. The animals were caged individually and fed a commercial diet, R34, from Lactamin AB, Sweden. They were given free access to water. All animals were allowed an acclimatisation period of a minimum of 7 days prior to the commencement of the experiment. The animals were separated in six groups (n=8) and treated twice daily with subcutaneous injections as follows: • Group 1. Control (NaCl). • Group 2. Positive control Ghrelin 200 μg/kg body weight/injection. • Group 3. GTP-5 50 μg/kg body weight/injection. • Group 4. GTP-5 200 μg/kg body weight/injection. • Group 5. GTP-6 50 μg/kg body weight/injection. • Group 6. GTP-6 200 μg/kg body weight/injection.
The weight of the animals, and their food and water were recorded daily. The animals were checked twice daily for change in food intake, activity and fur quality as signs of a change in general health status.
Pre-dose, day 7 and 14 the animals were anaesthetized with Isofluran and blood was collected through the orbital plexus. The blood was analysed for clinical chemistry (ASAT, ALAT, bilirubin, albumin, creatinine, LD, GGT, potassium, sodium, glucose, IgF-1, insulin and leptin) and haematology (white blood cells, red blood cells, haemoglobin, platelets and haematokrit). After blood sampling the animals were killed and epididymal, subcutaneous and retroperitoneal fat pads were dissected and weighed.

[1] = 200 μg/kg body weight/injection
[2] = 50 μg/kg body weight/injection (low dose)
[3] = 200 μg/kg body weight/injection (high dose)
[4] = 200 μg/kg body weight/injection (high dose), listed as ghrelin

bASS(CO-C7 H15)FLSPEHQRVQQRKESKKPPAKLQPR (XSSFLSPEHQRVQQRKESKKPPAKLQPR; N-terminal beta-alanine; octanoyl on Ser3) [GTP-6, 28 amino acids long, octanoyl group on serine-3 sidechain (bA = beta-alanine)]
Total weight increase in the animals, Mean ± S.D. (50 μg/kg body weight/injection): 79.3 ± 10.0 g | Total weight increase in the animals, Mean ± S.D. [1]: 77.8 ± 10.2 g | Body weight gain compared with saline group (in words) [2]: higher weight gains than saline; also recorded: associated with increases | Cumulative food intake compared with control group (in words) [2]: tended to eat more than the control group; also recorded: associated with increases | Subcutaneous fat depots (fat pad weight, in words) [2]: significant increase; also recorded: induced an increase | Body weight gain compared with saline group (in words) [3]: higher weight gains than saline; also recorded: associated with increases | Cumulative food intake compared with control group (in words) [3]: tended to eat more than the control group; also recorded: associated with increases | Subcutaneous fat depots (fat pad weight, in words) [3]: significant increase; also recorded: induced an increase

Ghrelin: Positive control; 28 amino acid peptide hormone acylated on serine 3, endogenous GHS-R1a ligand (GSS(Octanoyl)FLSPEHQRVQQRKESKKPPAKLQPR; UniProt Q9UBU3 24-51, looked up) [reference compound]
Total weight increase in the animals, Mean ± S.D. [1]: 92.1 ± 9.0 g | Body weight gain compared with saline group (in words) [3]: associated with increases | Cumulative food intake compared with control group (in words) [3]: associated with increases | Epididymal fat depots (fat pad weight, in words) [3]: significant increase | Subcutaneous fat depots (fat pad weight, in words) [3]: significant increase; also recorded: induced an increase | Body weight gain compared with saline group (in words) [4]: gained significantly more weight than the saline group | Cumulative food intake compared with control group (in words) [4]: higher cumulative food intake

GABAS(CO-C7 H15)FLSPEHQRVQQRKESKKPPAKLQPR ([GABA]S(Octanoyl)FLSPEHQRVQQRKESKKPPAKLQPR) [GTP-5, 27 amino acids long, octanoyl on the serine-3 sidechain (GABA = 4-aminobutyric acid)]
Total weight increase in the animals, Mean ± S.D. (50 μg/kg body weight/injection): 75.4 ± 14.3 g | Total weight increase in the animals, Mean ± S.D. [1]: 78.2 ± 16.3 g | Body weight gain compared with saline group (in words) [2]: higher weight gains than saline; also recorded: associated with increases | Cumulative food intake compared with control group (in words) [2]: associated with increases | Body weight gain compared with saline group (in words) [3]: higher weight gains than saline; also recorded: associated with increases | Cumulative food intake compared with control group (in words) [3]: tended to eat more than the control group; also recorded: associated with increases | Epididymal fat depots (fat pad weight, in words) [3]: significant increase | Subcutaneous fat depots (fat pad weight, in words) [3]: significant increase; also recorded: induced an increase
